Laboratory results from paper PMC8222254, “Self-assembly of an anion receptor with metal-dependent kinase inhibition and potent in vitro anti-cancer properties” (Nature Communications, 2021).
Where “and” joins values, the source holds several entries; their conditions need not be identical. Identical values can stand only once.

Legend:
Experiment in all cases: Kinase inhibition screen, cell-free 33P ATP assay at 10 μM
Assay type in all cases: biochemical
[1] = target: 140 purified human kinases (Homo sapiens, UniProt P29317)
Sequence of 140 purified human kinases (Homo sapiens, UniProt P29317) (P29317 24-976): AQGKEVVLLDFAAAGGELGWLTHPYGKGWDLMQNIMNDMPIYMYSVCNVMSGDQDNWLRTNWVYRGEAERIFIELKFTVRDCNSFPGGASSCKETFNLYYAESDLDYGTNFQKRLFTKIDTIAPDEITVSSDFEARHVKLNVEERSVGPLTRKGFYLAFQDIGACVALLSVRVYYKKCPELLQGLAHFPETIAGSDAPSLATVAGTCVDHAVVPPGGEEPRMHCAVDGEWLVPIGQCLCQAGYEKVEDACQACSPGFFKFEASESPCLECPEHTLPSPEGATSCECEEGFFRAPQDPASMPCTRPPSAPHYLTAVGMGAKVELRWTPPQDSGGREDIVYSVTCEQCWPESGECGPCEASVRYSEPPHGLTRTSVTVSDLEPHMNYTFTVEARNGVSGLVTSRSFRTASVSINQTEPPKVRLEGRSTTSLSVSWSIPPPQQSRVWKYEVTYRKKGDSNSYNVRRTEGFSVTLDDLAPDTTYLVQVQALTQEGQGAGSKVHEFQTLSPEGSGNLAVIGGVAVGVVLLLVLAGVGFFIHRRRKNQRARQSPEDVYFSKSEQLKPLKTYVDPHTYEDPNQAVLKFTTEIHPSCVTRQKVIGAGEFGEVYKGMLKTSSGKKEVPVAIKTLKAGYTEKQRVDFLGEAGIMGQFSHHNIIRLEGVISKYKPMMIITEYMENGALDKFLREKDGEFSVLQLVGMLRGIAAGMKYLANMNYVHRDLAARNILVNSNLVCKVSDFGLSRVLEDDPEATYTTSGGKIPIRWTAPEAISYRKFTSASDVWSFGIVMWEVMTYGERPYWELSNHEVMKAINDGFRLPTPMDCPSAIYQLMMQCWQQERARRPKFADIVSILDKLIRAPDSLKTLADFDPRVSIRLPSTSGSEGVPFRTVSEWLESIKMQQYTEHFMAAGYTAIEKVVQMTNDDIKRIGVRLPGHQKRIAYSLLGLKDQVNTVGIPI
Summary of the method: (§1)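 Each complex tested in duplicate at 10 μM; cell-free radiometric assay using ^33P ATP on purified enzymes. Hits mapped by HGNC symbol onto the kinome tree.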

[2] = target: T1, 140 purified human kinases (Homo sapiens, UniProt P54762)
T1 sequence (P54762 18-984): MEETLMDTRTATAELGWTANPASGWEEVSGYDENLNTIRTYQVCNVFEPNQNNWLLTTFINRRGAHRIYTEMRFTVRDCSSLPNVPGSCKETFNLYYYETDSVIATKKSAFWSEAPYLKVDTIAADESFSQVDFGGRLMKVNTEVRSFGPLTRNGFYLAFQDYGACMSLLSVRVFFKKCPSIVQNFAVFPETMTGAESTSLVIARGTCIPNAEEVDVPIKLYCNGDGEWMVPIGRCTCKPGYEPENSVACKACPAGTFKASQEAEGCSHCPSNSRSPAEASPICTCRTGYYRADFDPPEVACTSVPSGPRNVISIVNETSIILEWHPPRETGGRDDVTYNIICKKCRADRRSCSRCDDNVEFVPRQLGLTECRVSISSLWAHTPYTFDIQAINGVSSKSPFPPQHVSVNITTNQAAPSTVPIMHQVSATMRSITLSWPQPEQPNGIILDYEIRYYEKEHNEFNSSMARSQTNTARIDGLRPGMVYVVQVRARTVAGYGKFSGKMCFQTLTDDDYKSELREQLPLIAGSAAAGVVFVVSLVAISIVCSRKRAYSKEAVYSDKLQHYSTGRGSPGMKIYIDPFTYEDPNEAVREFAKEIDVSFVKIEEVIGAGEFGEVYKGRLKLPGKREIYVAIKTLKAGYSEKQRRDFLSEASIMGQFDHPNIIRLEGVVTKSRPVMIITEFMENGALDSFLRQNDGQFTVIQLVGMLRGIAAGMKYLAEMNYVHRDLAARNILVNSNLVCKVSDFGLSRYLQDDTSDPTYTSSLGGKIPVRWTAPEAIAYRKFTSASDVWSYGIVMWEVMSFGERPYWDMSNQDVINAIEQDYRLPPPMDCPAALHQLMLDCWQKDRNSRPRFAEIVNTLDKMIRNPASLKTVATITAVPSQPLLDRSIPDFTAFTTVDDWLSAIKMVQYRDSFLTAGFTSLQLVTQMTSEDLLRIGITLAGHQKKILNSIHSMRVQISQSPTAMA
Summary of the method: as §1

[3] = target: 140 purified human kinases (Homo sapiens, UniProt P06239); conditions: Lck
Sequence of 140 purified human kinases (Homo sapiens, UniProt P06239) (P06239 whole entry): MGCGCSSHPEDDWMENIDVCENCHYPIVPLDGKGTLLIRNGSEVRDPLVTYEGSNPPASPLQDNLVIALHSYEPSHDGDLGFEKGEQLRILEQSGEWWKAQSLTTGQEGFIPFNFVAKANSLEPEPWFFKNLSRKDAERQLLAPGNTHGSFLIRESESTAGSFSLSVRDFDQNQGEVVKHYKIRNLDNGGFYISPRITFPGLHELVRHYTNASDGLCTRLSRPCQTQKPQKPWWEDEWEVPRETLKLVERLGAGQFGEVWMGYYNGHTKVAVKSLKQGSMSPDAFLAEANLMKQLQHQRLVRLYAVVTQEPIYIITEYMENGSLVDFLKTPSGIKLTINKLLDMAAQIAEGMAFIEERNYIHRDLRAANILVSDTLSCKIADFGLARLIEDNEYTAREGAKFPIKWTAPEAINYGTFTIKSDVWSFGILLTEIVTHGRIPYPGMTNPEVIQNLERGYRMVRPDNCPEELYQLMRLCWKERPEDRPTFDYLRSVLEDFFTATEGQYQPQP
Summary of the method: as §1

[4] = target: 140 purified human kinases (Homo sapiens, UniProt P31751); conditions: PKBb
Sequence of 140 purified human kinases (Homo sapiens, UniProt P31751) (P31751 whole entry): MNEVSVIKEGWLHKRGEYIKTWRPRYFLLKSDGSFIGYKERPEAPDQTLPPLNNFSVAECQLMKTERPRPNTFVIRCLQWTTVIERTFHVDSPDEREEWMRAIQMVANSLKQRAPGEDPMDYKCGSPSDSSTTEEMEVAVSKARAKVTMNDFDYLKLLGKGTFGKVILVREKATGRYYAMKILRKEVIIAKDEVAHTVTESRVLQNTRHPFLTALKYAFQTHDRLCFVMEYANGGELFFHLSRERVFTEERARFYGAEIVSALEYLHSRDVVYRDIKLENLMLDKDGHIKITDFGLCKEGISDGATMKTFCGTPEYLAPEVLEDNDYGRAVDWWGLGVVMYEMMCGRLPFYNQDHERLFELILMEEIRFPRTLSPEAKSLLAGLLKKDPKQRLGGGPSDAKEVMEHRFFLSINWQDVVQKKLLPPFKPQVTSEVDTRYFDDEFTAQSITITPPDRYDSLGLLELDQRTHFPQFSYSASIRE
Summary of the method: as §1

[5] = target: T2, 140 purified human kinases (Homo sapiens, UniProt O43781)
T2 sequence (O43781 1-588): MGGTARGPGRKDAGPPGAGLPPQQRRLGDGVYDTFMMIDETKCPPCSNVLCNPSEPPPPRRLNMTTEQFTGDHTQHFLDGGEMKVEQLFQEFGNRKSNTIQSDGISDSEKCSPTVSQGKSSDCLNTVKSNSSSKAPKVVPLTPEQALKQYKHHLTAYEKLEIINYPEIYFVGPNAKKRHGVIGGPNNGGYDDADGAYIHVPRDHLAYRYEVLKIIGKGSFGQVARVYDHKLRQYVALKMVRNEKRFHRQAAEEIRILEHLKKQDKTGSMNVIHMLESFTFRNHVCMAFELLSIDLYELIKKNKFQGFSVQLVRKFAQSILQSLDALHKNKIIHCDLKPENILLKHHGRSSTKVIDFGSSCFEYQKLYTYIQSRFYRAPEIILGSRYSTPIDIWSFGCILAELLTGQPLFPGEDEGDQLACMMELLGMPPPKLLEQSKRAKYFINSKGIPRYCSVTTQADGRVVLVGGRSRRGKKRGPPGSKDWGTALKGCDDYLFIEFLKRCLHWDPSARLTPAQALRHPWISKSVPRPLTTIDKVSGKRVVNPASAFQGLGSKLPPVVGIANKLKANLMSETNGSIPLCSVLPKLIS
Summary of the method: as §1

[6] = target: 140 purified human kinases (Homo sapiens, UniProt P45983)
Sequence of 140 purified human kinases (Homo sapiens, UniProt P45983) (P45983 whole entry): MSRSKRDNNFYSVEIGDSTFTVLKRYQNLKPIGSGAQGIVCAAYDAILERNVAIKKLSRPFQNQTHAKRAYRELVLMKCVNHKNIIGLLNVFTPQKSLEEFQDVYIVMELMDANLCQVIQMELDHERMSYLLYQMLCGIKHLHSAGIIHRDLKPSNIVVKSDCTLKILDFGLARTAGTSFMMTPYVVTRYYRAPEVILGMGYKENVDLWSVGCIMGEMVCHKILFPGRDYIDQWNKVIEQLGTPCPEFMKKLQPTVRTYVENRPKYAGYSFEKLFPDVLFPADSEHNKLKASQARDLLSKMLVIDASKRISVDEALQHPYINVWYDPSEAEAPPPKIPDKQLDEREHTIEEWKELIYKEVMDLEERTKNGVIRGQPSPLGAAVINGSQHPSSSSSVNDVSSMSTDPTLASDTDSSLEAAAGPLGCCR
Summary of the method: as §1

[7] = target: 140 purified human kinases (Homo sapiens, UniProt P04629); conditions: TrkA
Sequence of 140 purified human kinases (Homo sapiens, UniProt P04629) (P04629 33-796): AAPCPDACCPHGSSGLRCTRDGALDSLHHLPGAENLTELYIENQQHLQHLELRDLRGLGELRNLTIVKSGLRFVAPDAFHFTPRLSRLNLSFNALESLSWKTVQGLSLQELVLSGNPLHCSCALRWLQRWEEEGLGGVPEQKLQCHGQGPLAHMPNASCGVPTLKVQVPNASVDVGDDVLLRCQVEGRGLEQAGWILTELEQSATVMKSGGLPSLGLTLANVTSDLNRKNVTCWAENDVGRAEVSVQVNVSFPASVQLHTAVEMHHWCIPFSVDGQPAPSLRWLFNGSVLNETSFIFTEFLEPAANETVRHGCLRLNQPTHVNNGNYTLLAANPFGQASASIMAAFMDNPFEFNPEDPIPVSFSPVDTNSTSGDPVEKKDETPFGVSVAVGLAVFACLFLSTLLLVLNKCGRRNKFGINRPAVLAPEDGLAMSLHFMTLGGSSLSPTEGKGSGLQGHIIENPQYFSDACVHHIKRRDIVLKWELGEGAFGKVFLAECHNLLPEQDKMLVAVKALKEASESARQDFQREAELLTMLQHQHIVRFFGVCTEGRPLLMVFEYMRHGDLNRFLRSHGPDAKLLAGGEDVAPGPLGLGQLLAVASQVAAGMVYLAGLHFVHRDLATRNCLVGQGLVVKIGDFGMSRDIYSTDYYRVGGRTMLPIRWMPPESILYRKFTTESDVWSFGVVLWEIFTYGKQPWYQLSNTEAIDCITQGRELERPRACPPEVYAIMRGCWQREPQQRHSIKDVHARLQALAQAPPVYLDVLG
Summary of the method: as §1

[8] = target: 140 purified human kinases (Homo sapiens, UniProt Q16816); conditions: PHK
Sequence of 140 purified human kinases (Homo sapiens, UniProt Q16816) (Q16816 whole entry): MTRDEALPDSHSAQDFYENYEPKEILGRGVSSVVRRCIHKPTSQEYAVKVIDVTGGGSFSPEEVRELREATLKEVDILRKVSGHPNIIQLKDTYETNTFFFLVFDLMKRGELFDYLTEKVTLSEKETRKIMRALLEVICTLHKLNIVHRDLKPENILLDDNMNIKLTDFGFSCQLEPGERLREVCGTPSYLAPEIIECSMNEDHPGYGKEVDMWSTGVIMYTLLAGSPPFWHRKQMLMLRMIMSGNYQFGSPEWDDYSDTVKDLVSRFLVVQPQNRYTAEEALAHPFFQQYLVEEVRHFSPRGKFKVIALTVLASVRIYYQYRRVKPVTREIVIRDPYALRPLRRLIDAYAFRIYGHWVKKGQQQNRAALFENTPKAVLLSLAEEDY
Summary of the method: as §1

Compound: [Cu+2].[Cu+2].[Cu+2].c1ccc(-c2csc(NCCN(CCNc3nc(-c4ccccn4)cs3)CCNc3nc(-c4ccccn4)cs3)n2)nc1.c1ccc(-c2csc(NCCN(CCNc3nc(-c4ccccn4)cs3)CCNc3nc(-c4ccccn4)cs3)n2)nc1 [[L2Cu3]6+]
- % Inhibition Run 1 ([1]; EPH-A2): 3.5%
- % Inhibition Run 2 ([1]; EPH-A2): 9.8%
- % Inhibition, Mean ([1]; EPH-A2): 6.65%
- mean % activity ([1]; EPH-A2): 93%
- % activity ([1]; EPH-A2, Run 1): 96.5%
- % activity ([1]; EPH-A2, Run 2): 90.2%
- % Activation, Mean value ([2]; EPH-B1): 14%
- % Inhibition Run 1 ([2]; EPH-B1): -9.9%
- % Inhibition Run 2 ([2]; EPH-B1): -17.3%
- % Inhibition, Mean ([2]; EPH-B1): -14%
- mean % activity ([2]; EPH-B1): 114%
- % activity ([2]; EPH-B1, Run 1): 109.9%
- % activity ([2]; EPH-B1, Run 2): 117.3%
- % Activity Run 1 ([2]; EPH-B1, 10 µM): 109.90%
- % Activity Run 2 ([2]; EPH-B1, 10 µM): 117.30%
- % Inhibition Run 1 [3]: 64.9%
- % Inhibition Run 2 [3]: 65.8%
- % Inhibition, Mean [3]: 65%
- mean % activity [3]: 35%
- % activity ([3]; Run 1): 35.1%
- % activity ([3]; Run 2): 34.2%
- % Inhibition Run 1 [4]: 91.7%
- % Inhibition Run 2 [4]: 93.5%
- % Inhibition, Mean [4]: 93%
- mean % activity [4]: 7.4%
- % activity ([4]; Run 1): 8.3%
- % activity ([4]; Run 2): 6.5%
- % Activity inhibition Mean ([4]; 10 µM): 92.6%
- % Activity inhibition Run 1 ([4]; 10 µM): 91.7%
- % Activity inhibition Run 2 ([4]; 10 µM): 93.5%
- % Activity remaining Run 1 ([4]; 10 µM): 8.30%
- % Activity remaining Run 2 ([4]; 10 µM): 6.50%
- % Inhibition Run 1 ([5]; DYRK3): 42.6%
- % Inhibition Run 2 ([5]; DYRK3): 40.9%
- % Inhibition, Mean ([5]; DYRK3): 42%
- mean % activity ([5]; DYRK3): 58%
- % activity ([5]; DYRK3, Run 1): 57.4%
- % activity ([5]; DYRK3, Run 2): 59.1%
- % Inhibition Run 1 ([6]; JNK1): 20.4%
- % Inhibition Run 2 ([6]; JNK1): 5.8%
- % Inhibition, Mean ([6]; JNK1): 13%
- mean % activity ([6]; JNK1): 87%
- % activity ([6]; JNK1, Run 1): 79.6%
- % activity ([6]; JNK1, Run 2): 94.2%
- % Inhibition Run 1 [7]: 78.1%
- % Inhibition Run 2 [7]: 61.2%
- % Inhibition, Mean [7]: 70%
- mean % activity [7]: 30%
- % activity ([7]; Run 1): 21.9%
- % activity ([7]; Run 2): 38.8%
- % Inhibition Run 1 [8]: 59.9%
- % Inhibition Run 2 [8]: 49.3%
- % Inhibition, Mean [8]: 55%
- mean % activity [8]: 45%

Compound: CC(=O)[O-].CC(=O)[O-].CC(=O)[O-].CC(=O)[O-].CC(=O)[O-].CC(=O)[O-].[Zn+2].[Zn+2].[Zn+2].c1ccc(-c2csc(NCCN(CCNc3nc(-c4ccccn4)cs3)CCNc3nc(-c4ccccn4)cs3)n2)nc1.c1ccc(-c2csc(NCCN(CCNc3nc(-c4ccccn4)cs3)CCNc3nc(-c4ccccn4)cs3)n2)nc1 [[L2Zn3]6+]
- % Inhibition, Mean ([1]; EPH-A2): 19%
- % Inhibition, Run 1 / Run 2 ([1]; EPH-A2): 21% and 17%
- mean % activity ([1]; EPH-A2): 81%
- % activity ([1]; EPH-A2, duplicate runs): 79% and 83%
- % Inhibition, Mean ([2]; EPH-B1): -0.2%
- % Inhibition, Run 1 / Run 2 ([2]; EPH-B1): 4% and -4.6%
- mean % activity ([2]; EPH-B1): 100%
- % activity ([2]; EPH-B1, duplicate runs): 96% and 105%
- % Inhibition, Mean [3]: 44%
- % Inhibition, Run 1 / Run 2 [3]: 51% and 36%
- mean % activity [3]: 56%
- % activity ([3]; duplicate runs): 49% and 64%
- % Inhibition, Mean [4]: 65%
- % Inhibition, Run 1 / Run 2 [4]: 76% and 55%
- mean % activity [4]: 35%
- % activity ([4]; duplicate runs): 24% and 45%
- % Inhibition, Mean ([5]; DYRK3): 30%
- % Inhibition, Run 1 / Run 2 ([5]; DYRK3): 32% and 28%
- mean % activity ([5]; DYRK3): 70%
- % activity ([5]; DYRK3, duplicate runs): 68% and 72%
- % Inhibition, Mean ([6]; JNK1): 5%
- mean % activity ([6]; JNK1): 95%
- % activity ([6]; JNK1, duplicate runs): 88% and 102%
- % Inhibition, Mean [7]: 87%
- % Inhibition, Run 1 / Run 2 [7]: 88% and 86%
- mean % activity [7]: 13%
- % Activity inhibition Mean ([7]; 10 µM): 86.5%
- % Activity inhibition Run 1 ([7]; 10 µM): 88%
- % Activity inhibition Run 2 ([7]; 10 µM): 85%
- % Activity remaining Run 1 ([7]; 10 µM): 12%
- % Activity remaining Run 2 ([7]; 10 µM): 15%
- % activity ([7]; duplicate runs): 12% and 15%
- % Inhibition, Mean [8]: 64%
- mean % activity [8]: 36%
- % activity ([8]; duplicate runs): 32% and 39%
